Data published in ChEMBL document CHEMBL1201862, “PubChem BioAssay data set” (2004).
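The compound was tested at five concentrations on cells cultured in 96-well plates, with a 48-hour exposure period. GI50 marks 50% less growth.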 Active and inactive are the calls of the source. No stated cut-off is given here; in the data, active = GI50 up to about 1.1 µM and inactive = higher.

What was measured:
Assay in all cases: NCI anticancer screen, dose series, 48 h
HCT-15 = system: HCT-15
A549 = system: A549
COLO 205 = system: COLO 205
M14 = system: M14
OVCAR-4 = system: OVCAR-4
SF-268 = system: SF-268
SF-539 = system: SF-539
HOP-62 = system: HOP-62
UACC-257 = system: UACC-257
CCRF-CEM = system: CCRF-CEM
CAKI-1 = system: CAKI-1
Hs-578T = system: Hs-578T
SNB-19 = system: SNB-19
EKVX = system: EKVX
TK-10 = system: TK-10
SW-620 = system: SW-620
IGROV-1 = system: IGROV-1
MDA-MB-435 = system: MDA-MB-435
HOP-92 = system: HOP-92
NCI-H23 = system: NCI-H23
SK-MEL-28 = system: SK-MEL-28
SR = system: SR
T47D = system: T47D
ACHN = system: ACHN
A498 = system: A498
U-251 = system: U-251
HCC 2998 = system: HCC 2998
786-0 = system: 786-0
SK-MEL-2 = system: SK-MEL-2
NCI-H460 = system: NCI-H460
KM12 = system: KM12
OVCAR-3 = system: OVCAR-3
HCT-116 = system: HCT-116
DU-145 = system: DU-145
OVCAR-8 = system: OVCAR-8
NCI/ADR-RES = system: NCI/ADR-RES
SNB-75 = system: SNB-75
SF-295 = system: SF-295
SK-OV-3 = system: SK-OV-3
UO-31 = system: UO-31
BT-549 = system: BT-549
UACC-62 = system: UACC-62
MDA-MB-231 = system: MDA-MB-231
SN12C = system: SN12C
HL-60 = system: HL-60
OVCAR-5 = system: OVCAR-5
LOX IMVI = system: LOX IMVI
NCI-H522 = system: NCI-H522
RPMI-8226 = system: RPMI-8226
Malme-3M = system: Malme-3M
SK-MEL-5 = system: SK-MEL-5
HT-29 = system: HT-29
K562 = system: K562
MDA-N = system: MDA-N
PC-3 = system: PC-3
MCF7 = system: MCF7
RXF 393 = system: RXF 393
MOLT-4 = system: MOLT-4
NCI-H226 = system: NCI-H226

Nc1cc(S(=O)(=O)O)cc2ccc(S(=O)(=O)O)cc12
GI50 (HCT-15): > 100 µM | GI50 (A549): > 100 µM (inactive) | GI50 (COLO 205): > 100 µM (inactive) | GI50 (M14): > 100 µM (inactive) | GI50 (OVCAR-4): > 100 µM (inactive) | GI50 (SF-268): > 100 µM (inactive) | GI50 (SF-539): > 100 µM (inactive) | GI50 (HOP-62): > 100 µM (inactive) | GI50 (UACC-257): > 100 µM (inactive) | GI50 (CCRF-CEM): > 100 µM (inactive) | GI50 (CAKI-1): > 100 µM (inactive) | GI50 (Hs-578T): > 100 µM (inactive) | GI50 (SNB-19): > 100 µM (inactive) | GI50 (EKVX): > 100 µM (inactive) | GI50 (TK-10): > 100 µM (inactive) | GI50 (SW-620): > 100 µM (inactive) | GI50 (IGROV-1): > 100 µM (inactive) | GI50 (MDA-MB-435): > 100 µM (inactive) | GI50 (HOP-92): > 100 µM (inactive) | GI50 (NCI-H23): > 100 µM (inactive) | GI50 (SK-MEL-28): > 100 µM (inactive) | GI50 (SR): > 100 µM (inactive) | GI50 (T47D): > 100 µM (inactive) | GI50 (ACHN): > 100 µM (inactive) | GI50 (A498): > 100 µM (inactive) | GI50 (U-251): > 100 µM (inactive) | GI50 (HCC 2998): > 100 µM (inactive) | GI50 (786-0): > 100 µM (inactive) | GI50 (SK-MEL-2): > 100 µM (inactive) | GI50 (NCI-H460): > 100 µM (inactive) | GI50 (KM12): > 100 µM (inactive) | GI50 (OVCAR-3): > 100 µM (inactive) | GI50 (HCT-116): > 100 µM (inactive) | GI50 (DU-145): > 100 µM (inactive) | GI50 (OVCAR-8): > 100 µM (inactive) | GI50 (NCI/ADR-RES): > 100 µM (inactive) | GI50 (SNB-75): > 100 µM (inactive) | GI50 (SF-295): > 100 µM (inactive) | GI50 (SK-OV-3): > 100 µM (inactive) | GI50 (UO-31): > 100 µM (inactive) | GI50 (BT-549): > 100 µM (inactive) | GI50 (UACC-62): > 100 µM (inactive) | GI50 (MDA-MB-231): > 100 µM (inactive) | GI50 (SN12C): > 100 µM (inactive) | GI50 (HL-60): > 100 µM (inactive) | GI50 (OVCAR-5): > 100 µM (inactive) | GI50 (LOX IMVI): > 100 µM (inactive) | GI50 (NCI-H522): > 100 µM (inactive) | GI50 (RPMI-8226): > 100 µM (inactive) | GI50 (Malme-3M): > 100 µM (inactive) | GI50 (SK-MEL-5): > 100 µM (inactive) | GI50 (HT-29): > 100 µM (inactive) | GI50 (K562): > 100 µM (inactive) | GI50 (MDA-N): > 100 µM (inactive) | GI50 (PC-3): > 100 µM (inactive) | GI50 (MCF7): > 100 µM (inactive) | GI50 (RXF 393): > 100 µM (inactive)

Cc1cn(CCCCCCOC(=O)NC(CCCNC(=N)N)C(=O)O)c(=O)[nH]c1=O (stereo not given)
GI50 (HCT-15): > 100 µM | GI50 (A549): > 100 µM (inactive) | GI50 (COLO 205): > 100 µM (inactive) | GI50 (M14): > 100 µM (inactive) | GI50 (OVCAR-4): > 100 µM (inactive) | GI50 (SF-268): > 100 µM (inactive) | GI50 (SF-539): > 100 µM (inactive) | GI50 (HOP-62): > 100 µM (inactive) | GI50 (UACC-257): > 100 µM (inactive) | GI50 (CCRF-CEM): > 100 µM (inactive) | GI50 (CAKI-1): > 100 µM (inactive) | GI50 (Hs-578T): > 100 µM (inactive) | GI50 (SNB-19): > 100 µM (inactive) | GI50 (EKVX): > 100 µM (inactive) | GI50 (TK-10): > 100 µM (inactive) | GI50 (SW-620): > 100 µM (inactive) | GI50 (IGROV-1): > 100 µM (inactive) | GI50 (MDA-MB-435): > 100 µM (inactive) | GI50 (HOP-92): > 100 µM (inactive) | GI50 (NCI-H23): > 100 µM (inactive) | GI50 (SK-MEL-28): > 100 µM (inactive) | GI50 (SR): > 100 µM (inactive) | GI50 (T47D): > 100 µM (inactive) | GI50 (ACHN): > 100 µM (inactive) | GI50 (A498): > 100 µM (inactive) | GI50 (U-251): > 100 µM (inactive) | GI50 (HCC 2998): > 100 µM (inactive) | GI50 (786-0): > 100 µM (inactive) | GI50 (SK-MEL-2): > 100 µM (inactive) | GI50 (NCI-H460): > 100 µM (inactive) | GI50 (KM12): > 100 µM (inactive) | GI50 (OVCAR-3): > 100 µM (inactive) | GI50 (HCT-116): > 100 µM (inactive) | GI50 (DU-145): > 100 µM (inactive) | GI50 (MOLT-4): > 100 µM (inactive) | GI50 (OVCAR-8): > 100 µM (inactive) | GI50 (NCI/ADR-RES): > 100 µM (inactive) | GI50 (SNB-75): > 100 µM (inactive) | GI50 (SF-295): > 100 µM (inactive) | GI50 (SK-OV-3): > 100 µM (inactive) | GI50 (UO-31): > 100 µM (inactive) | GI50 (BT-549): > 100 µM (inactive) | GI50 (UACC-62): > 100 µM (inactive) | GI50 (MDA-MB-231): > 100 µM (inactive) | GI50 (SN12C): > 100 µM (inactive) | GI50 (HL-60): > 100 µM (inactive) | GI50 (OVCAR-5): > 100 µM (inactive) | GI50 (NCI-H226): > 100 µM (inactive) | GI50 (LOX IMVI): > 100 µM (inactive) | GI50 (RPMI-8226): > 100 µM (inactive) | GI50 (HT-29): > 100 µM (inactive) | GI50 (K562): > 100 µM (inactive) | GI50 (MDA-N): > 100 µM (inactive) | GI50 (PC-3): > 100 µM (inactive) | GI50 (MCF7): > 100 µM (inactive) | GI50 (RXF 393): > 100 µM (inactive)

COC(=O)C(Cc1c[nH]c2ccccc12)NP(=O)(O)OCC1OC(n2cc(Br)c(=O)[nH]c2=O)CC1O (stereo not given)
GI50 (HCT-15): > 100 µM | GI50 (A549): > 100 µM (inactive) | GI50 (COLO 205): > 100 µM (inactive) | GI50 (M14): > 100 µM (inactive) | GI50 (OVCAR-4): > 100 µM (inactive) | GI50 (SF-268): > 100 µM (inactive) | GI50 (SF-539): > 100 µM (inactive) | GI50 (HOP-62): > 100 µM (inactive) | GI50 (UACC-257): > 100 µM (inactive) | GI50 (CCRF-CEM): > 100 µM (inactive) | GI50 (Hs-578T): > 100 µM (inactive) | GI50 (SNB-19): > 100 µM (inactive) | GI50 (EKVX): > 100 µM (inactive) | GI50 (TK-10): > 100 µM (inactive) | GI50 (SW-620): > 100 µM (inactive) | GI50 (IGROV-1): > 100 µM (inactive) | GI50 (MDA-MB-435): > 100 µM (inactive) | GI50 (HOP-92): > 100 µM (inactive) | GI50 (NCI-H23): > 100 µM (inactive) | GI50 (SK-MEL-28): > 100 µM (inactive) | GI50 (SR): > 100 µM (inactive) | GI50 (T47D): > 100 µM (inactive) | GI50 (ACHN): > 100 µM (inactive) | GI50 (A498): > 100 µM (inactive) | GI50 (U-251): > 100 µM (inactive) | GI50 (HCC 2998): > 100 µM (inactive) | GI50 (786-0): > 100 µM (inactive) | GI50 (SK-MEL-2): > 100 µM (inactive) | GI50 (NCI-H460): > 100 µM (inactive) | GI50 (KM12): > 100 µM (inactive) | GI50 (OVCAR-3): > 100 µM (inactive) | GI50 (HCT-116): > 100 µM (inactive) | GI50 (DU-145): > 100 µM (inactive) | GI50 (MOLT-4): > 100 µM (inactive) | GI50 (OVCAR-8): > 100 µM (inactive) | GI50 (NCI/ADR-RES): > 100 µM (inactive) | GI50 (SNB-75): > 100 µM (inactive) | GI50 (SF-295): > 100 µM (inactive) | GI50 (SK-OV-3): > 100 µM (inactive) | GI50 (UO-31): > 100 µM (inactive) | GI50 (BT-549): > 100 µM (inactive) | GI50 (UACC-62): > 100 µM (inactive) | GI50 (MDA-MB-231): > 100 µM (inactive) | GI50 (SN12C): > 100 µM (inactive) | GI50 (HL-60): > 100 µM (inactive) | GI50 (OVCAR-5): > 100 µM (inactive) | GI50 (NCI-H226): > 100 µM (inactive) | GI50 (LOX IMVI): > 100 µM (inactive) | GI50 (NCI-H522): > 100 µM (inactive) | GI50 (Malme-3M): > 100 µM (inactive) | GI50 (SK-MEL-5): > 100 µM (inactive) | GI50 (HT-29): > 100 µM (inactive) | GI50 (K562): > 100 µM (inactive) | GI50 (MDA-N): > 100 µM (inactive) | GI50 (PC-3): > 100 µM (inactive) | GI50 (MCF7): > 100 µM (inactive) | GI50 (RXF 393): > 100 µM (inactive)
